Twelve compounds from US20260078122A1, “INDAZOLE COMPOUNDS AS PKMYT1 KINASE INHIBITORS” (Hoffmann-La Roche Inc., priority 2023, published 2026) can be followed below.

Series [1] concerns the target T1, recombinant human Myt1 (full length PKMYT1) (Homo sapiens, UniProt Q99640).
T1 sequence (Q99640 1-499): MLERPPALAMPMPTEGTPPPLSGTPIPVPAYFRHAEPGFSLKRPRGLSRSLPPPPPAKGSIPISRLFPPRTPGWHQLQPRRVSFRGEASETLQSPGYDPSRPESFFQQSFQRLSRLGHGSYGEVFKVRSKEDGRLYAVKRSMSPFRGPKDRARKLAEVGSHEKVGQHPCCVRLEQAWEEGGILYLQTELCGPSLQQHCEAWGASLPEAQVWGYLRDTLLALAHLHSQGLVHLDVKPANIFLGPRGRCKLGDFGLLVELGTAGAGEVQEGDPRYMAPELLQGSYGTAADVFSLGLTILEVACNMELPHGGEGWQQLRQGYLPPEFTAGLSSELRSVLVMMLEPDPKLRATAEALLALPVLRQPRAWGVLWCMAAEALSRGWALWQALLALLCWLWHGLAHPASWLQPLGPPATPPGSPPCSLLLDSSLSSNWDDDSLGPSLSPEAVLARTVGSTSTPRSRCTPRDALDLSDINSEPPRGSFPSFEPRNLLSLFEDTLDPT
Description: ADP-Glo assay (Myt1 kinase activity).

Series [2] is described as follows: Human microsome stability assay. The conditions noted are these: 1 μM compound, 0.5 mg/mL liver microsomal protein, 1 mM NADPH, 37° C., 0-30 minutes.

Regarding `Cc1c(S(C)(=O)=O)cnc2c(-c3ccc(F)c4[nH]ncc34)c(N)c(=O)[nH]c12` [Example 143, 3-Amino-4-(7-fluoro-1H-indazol-4-yl)-8-methyl-7-methylsulfonyl-1H-1,5-naphthyridin-2-one], the IC50 in series [1] was found to be 0.011 µM. The “Clearance of Human microsome” value in series [2] came out at 6.15 mL/min/kg.
In the case of `Cc1nc(C#N)c2c(-c3ccc(F)c4[nH]ncc34)c(N)c(=O)[nH]c2c1C` [Example 161, 3-Amino-4-(7-fluoro-1H-indazol-4-yl)-7,8-dimethyl-2-oxo-1H-1,6-naphthyridine-5-carbonitrile], in series [1], the half-maximal inhibitory concentration (IC50) amounted to 0.0155 µM. For the same compound, the “Clearance of Human microsome” value in series [2] was determined as 6.15 mL/min/kg.
On to `Cc1c(C(C)(F)F)cnc2c(-c3ccc(F)c4[nH]ncc34)c(N)c(=O)[nH]c12` [Example 134, 3-Amino-7-(1,1-difluoroethyl)-4-(7-fluoro-1H-indazol-4-yl)-8-methyl-1H-1,5-naphthyridin-2-one], for which the IC50 in series [1] was less than 0.01 µM. Moreover, the “Clearance of Human microsome” value in series [2] is 6.15 mL/min/kg.
As for `Cc1c(-c2ccnnc2)cnc2c(-c3ccc(F)c4[nH]ncc34)c(N)c(=O)[nH]c12` [Example 120, 3-Amino-4-(7-fluoro-1H-indazol-4-yl)-8-methyl-7-pyridazin-4-yl-1H-1,5-naphthyridin-2-one], the IC50 in series [1] came to 0.0172 µM. Further, the “Clearance of Human microsome” value in series [2] came to 6.15 mL/min/kg.
For the compound `Cc1ncc(OC(F)F)c2c(-c3ccc(F)c4[nH]ncc34)c(N)c(=O)[nH]c12` [Example 185, 3-Amino-5-(difluoromethoxy)-4-(7-fluoro-1H-indazol-4-yl)-8-methyl-1H-1,7-naphthyridin-2-one], the IC50 in series [1] turned out to be 0.0114 µM. Further, the “Clearance of Human microsome” value in series [2] worked out at 6.15 mL/min/kg.
For the compound `Cc1cc2[nH]c(=O)c(N)c(-c3ccc(F)c4[nH]ncc34)c2nc1C1CN(C)C1` [Example 098, 3-Amino-4-(7-fluoro-1H-indazol-4-yl)-7-methyl-6-(1-methylazetidin-3-yl)-1H-1,5-naphthyridin-2-one], the IC50 in series [1] was determined as 0.0187 µM. In addition, the “Clearance of Human microsome” value in series [2] was determined as 7.72 mL/min/kg.
Regarding `COc1ncc(C)c2[nH]c(=O)c(N)c(-c3ccc(F)c4[nH]ncc34)c12` [Example 172, 3-Amino-4-(7-fluoro-1H-indazol-4-yl)-5-methoxy-8-methyl-1H-1,6-naphthyridin-2-one], the half-maximal inhibitory concentration (IC50) in series [1] was 0.0109 µM. Moreover, the “Clearance of Human microsome” value in series [2] is recorded as 6.20 mL/min/kg.
For the compound `Cc1cc2[nH]c(=O)c(N)c(-c3ccc(F)c4[nH]ncc34)c2nc1C#CC(C)O` (stereo not drawn) [Example 074, 3-Amino-4-(7-fluoro-1H-indazol-4-yl)-6-(3-hydroxybut-1-ynyl)-7-methyl-1H-1,5-naphthyridin-2-one], in series [1], the half-maximal inhibitory concentration (IC50) was 0.011 µM. The “Clearance of Human microsome” value in series [2] is on record as 6.15 mL/min/kg.
`Cc1cc2[nH]c(=O)c(N)c(-c3ccc(F)c4[nH]ncc34)c2nc1C#N` [Example 092, 7-Amino-8-(7-fluoro-1H-indazol-4-yl)-3-methyl-6-oxo-5H-1,5-naphthyridine-2-carbonitrile]: the concentration for half-maximal inhibition (IC50) in series [1] worked out at 0.0144 µM. Besides, the “Clearance of Human microsome” value in series [2] was 6.15 mL/min/kg.
With `Cc1cc2c(-c3ccc(F)c4[nH]ncc34)c(N)c(=O)[nH]c2nc1C` [Example 107, 3-Amino-4-(7-fluoro-1H-indazol-4-yl)-6,7-dimethyl-1H-1,8-naphthyridin-2-one], the IC50 in series [1] was determined as 0.0223 µM. Besides, the “Clearance of Human microsome” value in series [2] stood at 7.13 mL/min/kg.
Taken in the same sequence, the figures for `Cc1cc2[nH]c(=O)c(N)c(-c3ccc(F)c4[nH]ncc34)c2nc1C#CCN1CCOCC1` [Example 076, 3-Amino-4-(7-fluoro-1H-indazol-4-yl)-7-methyl-6-(3-morpholinoprop-1-ynyl)-1H-1,5-naphthyridin-2-one] were 0.0148 µM and 8.12 mL/min/kg.
`CCOC(=O)COc1nc2c(-c3ccc(F)c4[nH]ncc34)c(N)c(=O)[nH]c2cc1C` [Example 061, Ethyl 2-[[7-amino-8-(7-fluoro-1H-indazol-4-yl)-3-methyl-6-oxo-5H-1,5-naphthyridin-2-yl]oxy]acetate]: the 50% inhibitory concentration (IC50) in series [1] was found to be 0.0177 µM. Further, in series [2], the “Clearance of Human microsome” value came to 6.15 mL/min/kg.
